How the values were obtained:
Details in all cases: incubation time: 72 h
MDA-MB-231 [1] = assay: drug sensitivity score (DSS), CellTiter-Glo (DSS (AUC-based score)); higher = stronger drug effect (viability inhibition or cytotoxicity); extreme values may be limits of the assay
Method in brief: (§1)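 Breast cancer cell lines (20 µl suspension) were seeded into 384-well plates holding compound at 5 concentrations in 10-fold steps over a compound-specific 10,000-fold range, then incubated 72 h. CellTox Green fluorescence (485/520 nm) was read first, then CellTiter-Glo luminescence after 10 min at room temperature. Each plate was normalised to 0.1 % DMSO and a positive kill control. The drug sensitivity score was calculated from the area under the fitted dose-response curve.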

MDA-MB-453 [2] = assay: as above
Method in brief: as §1

MFM-223 [3] = assay: as above
Method in brief: as §1

HDQ-P1 [4] = assay: as above
Method in brief: as §1

CAL-148 [5] = assay: as above
Method in brief: as §1

HCC1937 [6] = assay: as above
Method in brief: as §1

HCC1143 [7] = assay: as above
Method in brief: as §1

MDA-MB-436 = assay: drug sensitivity score (DSS), CellTox Green (DSS (AUC-based score)); higher = stronger drug effect (viability inhibition or cytotoxicity); extreme values may be limits of the assay
Method in brief: as §1

MDA-MB-231 [8] = assay: as above
Method in brief: as §1

MDA-MB-453 [9] = assay: as above
Method in brief: as §1

MFM-223 [10] = assay: as above
Method in brief: as §1

BT-549 = assay: as above
Method in brief: as §1

DU-4475 = assay: as above
Method in brief: as §1

MCF-10A = assay: as above
Method in brief: as §1

BT-474 = assay: as above
Method in brief: as §1

CAL-120 = assay: as above
Method in brief: as §1

CAL-51 = assay: as above
Method in brief: as §1

HDQ-P1 [11] = assay: as above
Method in brief: as §1

CAL-148 [12] = assay: as above
Method in brief: as §1

HCC1937 [13] = assay: as above
Method in brief: as §1

CAL-85-1 = assay: as above
Method in brief: as §1

MDA-MB-468 = assay: as above
Method in brief: as §1

HCC1599 = assay: as above
Method in brief: as §1

HCC1143 [14] = assay: as above
Method in brief: as §1

Hs578T = assay: as above
Method in brief: as §1

SMILES	drug sensitivity score (MDA-MB-231 [1])	drug sensitivity score (MDA-MB-453 [2])	drug sensitivity score (MFM-223 [3])	drug sensitivity score (HDQ-P1 [4])	drug sensitivity score (CAL-148 [5])	drug sensitivity score (HCC1937 [6])	drug sensitivity score (HCC1143 [7])	drug sensitivity score (MDA-MB-436)	drug sensitivity score (MDA-MB-231 [8])	drug sensitivity score (MDA-MB-453 [9])	drug sensitivity score (MFM-223 [10])	drug sensitivity score (BT-549)	drug sensitivity score (DU-4475)	drug sensitivity score (MCF-10A)	drug sensitivity score (BT-474)	drug sensitivity score (CAL-120)	drug sensitivity score (CAL-51)	drug sensitivity score (HDQ-P1 [11])	drug sensitivity score (CAL-148 [12])	drug sensitivity score (HCC1937 [13])	drug sensitivity score (CAL-85-1)	drug sensitivity score (MDA-MB-468)	drug sensitivity score (HCC1599)	drug sensitivity score (HCC1143 [14])	drug sensitivity score (Hs578T)
CC(C)(C)Cn1c(N)nc2ccc(-c3[nH]c(C(C)(C)C)nc3-c3ccc(F)cc3)nc21	0	1.72	1.18	0	0	0	0	2.7	0.996	0	0	0	0	0	0	0.748	0	0	0	0	4.77	0	0	0	
Cn1cc(C[C@@H](N)C(=O)O)c2ccccc21 [1-methyl-D-tryptophan]	0	0	0	0	0	0	0	0	0	0	0	0	0	0	0	0	0	1.12	0	0	0	1.22	0	0	3.13
Cc1c(N)nc([C@H](CC(N)=O)NC[C@H](N)C(N)=O)nc1C(=O)N[C@H](C(=O)N[C@H](C)[C@@H](O)[C@H](C)C(=O)N[C@H](C(=O)NCCc1nc(-c2nc(C(=O)NCCC[S+](C)C)cs2)cs1)[C@@H](C)O)[C@@H](OC1OC(CO)C(O)C(O)C1OC1OC(CO)C(O)C(OC(N)=O)C1O)c1cnc[nH]1 (some centres undefined) [Bleomycin]	0	0	0	0	4.27	2.76	4.08	2.42	4.48	0	0	1.71	0	0	0	0	19.8	0	8.42	0	0.93	0	0	0	
CCCCCOC(=O)Nc1nc(=O)n([C@@H]2O[C@H](C)[C@@H](O)[C@H]2O)cc1F [Capecitabine]	0	0	0	0	0	0	0	0	0	0	3.74	0	0	0	0	0	0	0	0	0	0	0	0	0	
CCN(CC)CCOc1ccc(C(=C(Cl)c2ccccc2)c2ccccc2)cc1 [Clomifene]	5.02	5.37	2.2	0	0	5.68	0	0	8.18	2.83	9.19	0	1.43	3.53	5.14	1.48	0		0	8.71	2.27	0	1.4	0	7.35
CC(C)C(=O)Nc1ccc([N+](=O)[O-])c(C(F)(F)F)c1 [Flutamide]	0	0	0	0	0	0	0	0	0	0	0	0	0	0	0	0	0	0		0	0	0	0	0	0
COc1cc(Nc2ncc(F)c(Nc3ccc4c(n3)N(COP(=O)(O)O)C(=O)C(C)(C)O4)n2)cc(OC)c1OC [Fostamatinib]	6.92	0	7.93	2.19	0	1.88	1.25	0	11.1	0	0	11.4	0	0	0	0	3.3	0	0	0	6.03		0	0	3.65

From the supplement of paper PMC4862054
